{"source": "the supplement of paper PMC10307832"}
{"compound": "Cc1ccc(C(=O)Nc2ccc(CN3CCN(C)CC3)c(C(F)(F)F)c2)cc1C#Cc1cnc2cccnn12 [Ponatinib] + NC(=O)Nc1cc(-c2cccc(F)c2)sc1C(=O)N[C@H]1CCCNC1 [AZD7762] (partner 0.2 µM)", "assay": "relative viability (nuclei count vs DMSO), 5 days (fraction); higher = more cells survive", "details": "first compound 0.002 µM", "summary_of_the_method": "(§1)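 Relative viability equals treated-well nuclei counts divided by vehicle-well nuclei counts. Counts came from 4× images of lung cancer cell lines grown in 1536-well plates for 5 days after pin-tool dosing on the day after seeding. Dosing used one drug alone or a fixed anchor-drug dose plus five library-drug doses (not always all listed) in √10 steps, and values are medians of duplicate plates.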"}
{"cell line": "NCI-H2347", "relative viability": 0.747}
{"cell line": "PC-14", "relative viability": 0.218}
{"cell line": "LCLC-103H", "relative viability": 0.699}
{"cell line": "NCI-H596", "relative viability": 1.08}
{"cell line": "NCI-H2126", "relative viability": 0.978}
{"cell line": "EMC-BAC-2", "relative viability": 0.996}
{"cell line": "NCI-H2085", "relative viability": 0.962}
{"cell line": "HCC-366", "relative viability": 0.247}
{"cell line": "NCI-H1666", "relative viability": 0.823}
{"cell line": "NCI-H647", "relative viability": 0.294}
{"cell line": "LK-2", "relative viability": 0.405}
{"cell line": "NCI-H2087", "relative viability": 1.05}
{"cell line": "NCI-H1648", "relative viability": 0.627}
{"cell line": "NCI-H1395", "relative viability": 0.387}
{"cell line": "H3255", "relative viability": 0.817}
{"cell line": "LOU-NH91", "relative viability": 0.744}
{"cell line": "ChaGo-K-1", "relative viability": 0.763}
{"cell line": "NCI-H358", "relative viability": 0.45}
{"cell line": "NCI-H3122", "relative viability": 0.846}
{"cell line": "HOP-62", "relative viability": 0.643}
{"cell line": "HCC-44", "relative viability": 0.992}
{"cell line": "NCI-H522", "relative viability": 0.664}
{"cell line": "SW 900", "relative viability": 0.569}
{"cell line": "NCI-H1792", "relative viability": 0.708}
{"compound": "Cc1ccc(C(=O)Nc2ccc(CN3CCN(C)CC3)c(C(F)(F)F)c2)cc1C#Cc1cnc2cccnn12 [Ponatinib] + NC(=O)Nc1cc(-c2cccc(F)c2)sc1C(=O)N[C@H]1CCCNC1 [AZD7762] (partner 0.2 µM)", "assay": "relative viability (nuclei count vs DMSO), 5 days (fraction); higher = more cells survive", "details": "first compound 0.006325 µM", "summary_of_the_method": "as §1"}
{"cell line": "NCI-H2342", "relative viability": 0.457}
{"cell line": "NCI-H838", "relative viability": 0.935}
{"cell line": "NCI-H1703", "relative viability": 0.143}
{"cell line": "NCI-H1993", "relative viability": 0.86}
{"cell line": "NCI-H2347", "relative viability": 0.75}
{"cell line": "PC-14", "relative viability": 0.305}
{"cell line": "LCLC-103H", "relative viability": 0.809}
{"cell line": "NCI-H596", "relative viability": 1.04}
{"cell line": "NCI-H2126", "relative viability": 0.965}
{"cell line": "EMC-BAC-2", "relative viability": 1.05}
{"cell line": "NCI-H2085", "relative viability": 0.944}
{"cell line": "HCC-366", "relative viability": 0.271}
{"cell line": "NCI-H1666", "relative viability": 0.863}
{"cell line": "NCI-H647", "relative viability": 0.381}
{"cell line": "LK-2", "relative viability": 0.431}
{"cell line": "NCI-H2087", "relative viability": 1.07}
{"cell line": "NCI-H1648", "relative viability": 0.64}
{"cell line": "NCI-H1395", "relative viability": 0.41}
{"cell line": "H3255", "relative viability": 0.858}
{"cell line": "LOU-NH91", "relative viability": 0.779}
{"cell line": "ChaGo-K-1", "relative viability": 0.857}
{"cell line": "NCI-H358", "relative viability": 0.567}
{"cell line": "NCI-H3122", "relative viability": 0.903}
{"cell line": "HOP-62", "relative viability": 0.417}
{"cell line": "HCC-44", "relative viability": 1.02}
{"cell line": "NCI-H522", "relative viability": 0.784}
{"cell line": "SW 900", "relative viability": 0.46}
{"cell line": "NCI-H1792", "relative viability": 0.478}
{"compound": "Cc1ccc(C(=O)Nc2ccc(CN3CCN(C)CC3)c(C(F)(F)F)c2)cc1C#Cc1cnc2cccnn12 [Ponatinib] + NC(=O)Nc1cc(-c2cccc(F)c2)sc1C(=O)N[C@H]1CCCNC1 [AZD7762] (partner 0.2 µM)", "assay": "relative viability (nuclei count vs DMSO), 5 days (fraction); higher = more cells survive", "details": "first compound 0.06325 µM", "summary_of_the_method": "as §1"}
{"cell line": "NCI-H2342", "relative viability": 0.467}
{"cell line": "NCI-H838", "relative viability": 0.95}
{"cell line": "NCI-H1703", "relative viability": 0.118}
{"cell line": "NCI-H1993", "relative viability": 0.773}
{"cell line": "NCI-H2347", "relative viability": 0.626}
{"cell line": "PC-14", "relative viability": 0.396}
{"cell line": "LCLC-103H", "relative viability": 0.734}
{"cell line": "NCI-H596", "relative viability": 0.912}
{"cell line": "NCI-H2126", "relative viability": 1.09}
{"cell line": "EMC-BAC-2", "relative viability": 1.13}
{"cell line": "NCI-H2085", "relative viability": 0.909}
{"cell line": "HCC-366", "relative viability": 0.146}
{"cell line": "NCI-H1666", "relative viability": 0.889}
{"cell line": "NCI-H647", "relative viability": 0.482}
{"cell line": "LK-2", "relative viability": 0.146}
{"cell line": "NCI-H2087", "relative viability": 1.43}
{"cell line": "NCI-H1648", "relative viability": 0.618}
{"cell line": "NCI-H1395", "relative viability": 0.371}
{"cell line": "H3255", "relative viability": 1.05}
{"cell line": "LOU-NH91", "relative viability": 0.801}
{"cell line": "ChaGo-K-1", "relative viability": 0.847}
{"cell line": "NCI-H358", "relative viability": 0.509}
{"cell line": "NCI-H3122", "relative viability": 1.05}
{"cell line": "HOP-62", "relative viability": 0.831}
{"cell line": "HCC-44", "relative viability": 1.02}
{"cell line": "NCI-H522", "relative viability": 0.695}
{"cell line": "SW 900", "relative viability": 0.606}
{"cell line": "NCI-H1792", "relative viability": 0.55}
{"compound": "Cc1ccc(C(=O)Nc2ccc(CN3CCN(C)CC3)c(C(F)(F)F)c2)cc1C#Cc1cnc2cccnn12 [Ponatinib] + NC(=O)Nc1cc(-c2cccc(F)c2)sc1C(=O)N[C@H]1CCCNC1 [AZD7762] (partner 0.2 µM)", "assay": "relative viability (nuclei count vs DMSO), 5 days (fraction); higher = more cells survive", "details": "first compound 0.2 µM", "summary_of_the_method": "as §1"}
{"cell line": "NCI-H2342", "relative viability": 0.456}
{"cell line": "NCI-H838", "relative viability": 0.774}
{"cell line": "NCI-H1703", "relative viability": 0.143}
{"cell line": "NCI-H1993", "relative viability": 0.689}
{"cell line": "NCI-H2347", "relative viability": 0.662}
{"cell line": "PC-14", "relative viability": 0.458}
{"cell line": "LCLC-103H", "relative viability": 0.753}
{"cell line": "NCI-H596", "relative viability": 0.632}
{"cell line": "NCI-H2126", "relative viability": 0.998}
{"cell line": "EMC-BAC-2", "relative viability": 0.989}
{"cell line": "NCI-H2085", "relative viability": 0.814}
{"cell line": "HCC-366", "relative viability": 0.119}
{"cell line": "NCI-H1666", "relative viability": 0.902}
{"cell line": "NCI-H647", "relative viability": 0.335}
{"cell line": "LK-2", "relative viability": 0.231}
{"cell line": "NCI-H2087", "relative viability": 1.19}
{"cell line": "NCI-H1648", "relative viability": 0.567}
{"cell line": "NCI-H1395", "relative viability": 0.362}
{"cell line": "H3255", "relative viability": 0.95}
{"cell line": "LOU-NH91", "relative viability": 0.682}
{"cell line": "ChaGo-K-1", "relative viability": 0.819}
{"cell line": "NCI-H358", "relative viability": 0.46}
{"cell line": "NCI-H3122", "relative viability": 0.924}
{"cell line": "HOP-62", "relative viability": 0.439}
{"cell line": "HCC-44", "relative viability": 0.997}
{"cell line": "NCI-H522", "relative viability": 0.819}
{"cell line": "SW 900", "relative viability": 0.537}
{"cell line": "NCI-H1792", "relative viability": 0.407}
{"compound": "Cc1ccc(C(=O)Nc2ccc(CN3CCN(C)CC3)c(C(F)(F)F)c2)cc1C#Cc1cnc2cccnn12 [Ponatinib] + COc1cc2c(Oc3ccc(NC(=O)C4(C(=O)Nc5ccc(F)cc5)CC4)cc3F)ccnc2cc1OCCCN1CCOCC1 [Foretinib] (partner 0.25 µM)", "assay": "relative viability (nuclei count vs DMSO), 5 days (fraction); higher = more cells survive", "details": "first compound 0.002 µM", "summary_of_the_method": "as §1"}
{"cell line": "NCI-H2342", "relative viability": 1.04}
{"cell line": "NCI-H1623", "relative viability": 0.899}
{"cell line": "NCI-H838", "relative viability": 1.02}
{"cell line": "NCI-H1650", "relative viability": 1.36}
{"cell line": "EBC-1", "relative viability": 0.106}
{"cell line": "NCI-H1703", "relative viability": 0.275}
{"cell line": "NCI-H1993", "relative viability": 0.722}
{"cell line": "PC-14", "relative viability": 0.981}
{"cell line": "LCLC-103H", "relative viability": 0.745}
{"cell line": "NCI-H596", "relative viability": 0.732}
{"cell line": "NCI-H2126", "relative viability": 1.12}
{"cell line": "EMC-BAC-2", "relative viability": 0.965}
{"cell line": "NCI-H2085", "relative viability": 0.989}
{"cell line": "Calu-6", "relative viability": 0.849}
{"cell line": "HCC-366", "relative viability": 0.887}
{"cell line": "NCI-H1666", "relative viability": 0.967}
{"cell line": "NCI-H647", "relative viability": 1.12}
{"cell line": "NCI-H2087", "relative viability": 1.12}
{"cell line": "NCI-H1395", "relative viability": 0.903}
{"cell line": "H3255", "relative viability": 0.739}
{"cell line": "COR-L23", "relative viability": 0.931}
{"cell line": "COR-L 105", "relative viability": 0.882}
{"cell line": "IA-LM", "relative viability": 1.06}
{"cell line": "LOU-NH91", "relative viability": 0.929}
{"cell line": "ChaGo-K-1", "relative viability": 0.868}
{"cell line": "NCI-H358", "relative viability": 0.734}
{"cell line": "NCI-H3122", "relative viability": 0.977}
{"cell line": "HOP-62", "relative viability": 0.999}
{"cell line": "A549", "relative viability": 0.965}
{"cell line": "SW 900", "relative viability": 0.893}
{"cell line": "NCI-H2009", "relative viability": 1.18}
{"cell line": "NCI-H520", "relative viability": 0.628}
{"cell line": "SW 1573", "relative viability": 0.75}
{"cell line": "NCI-H1299", "relative viability": 1.07}
{"cell line": "NCI-H2228", "relative viability": 0.656}
{"cell line": "NCI-H2023", "relative viability": 0.778}
{"cell line": "NCI-H1563", "relative viability": 0.881}
{"cell line": "SK-LU-1", "relative viability": 0.852}
{"cell line": "SK-MES-1", "relative viability": 0.856}
{"cell line": "NCI-H661", "relative viability": 1.03}
{"compound": "Cc1ccc(C(=O)Nc2ccc(CN3CCN(C)CC3)c(C(F)(F)F)c2)cc1C#Cc1cnc2cccnn12 [Ponatinib] + COc1cc2c(Oc3ccc(NC(=O)C4(C(=O)Nc5ccc(F)cc5)CC4)cc3F)ccnc2cc1OCCCN1CCOCC1 [Foretinib] (partner 0.25 µM)", "assay": "relative viability (nuclei count vs DMSO), 5 days (fraction); higher = more cells survive", "details": "first compound 0.006325 µM", "summary_of_the_method": "as §1"}
{"cell line": "NCI-H2342", "relative viability": 1.04}
{"cell line": "NCI-H1623", "relative viability": 0.832}
{"cell line": "NCI-H838", "relative viability": 1.03}
{"cell line": "NCI-H1650", "relative viability": 1.07}
{"cell line": "EBC-1", "relative viability": 0.0969}
{"cell line": "NCI-H1703", "relative viability": 0.337}
{"cell line": "NCI-H1993", "relative viability": 0.778}
